“And” between values parts separate entries of the source, which are not always exact repeats. Identical values can stand only once. Like-named read-outs stand apart in the source and are kept apart here.
How the values were obtained:
[1] = tested on: SARS-CoV-2; assay: microbe, parasite or virus in culture; assay type: cell-based; conditions: for % Infection (1 uM) / % Infection (5 uM): single replicate of triplicate; for Normalized Infection (1 uM) / log2FC Infection (1 uM) / Normalized Infection (5 uM) / log2FC Infection (5 uM) / activity at 1 µM / activity at 5 µM: single replicate, relative to negative control DMSO; for activity at 1 µM: Severe acute respiratory syndrome coronavirus 2, 1 uM, read-out: Normalized Infection (1 uM); for activity at 5 µM: Severe acute respiratory syndrome coronavirus 2, 5 uM, read-out: Normalized Infection (5 uM)
[2] = for Average Cell Number (1 uM) / Cell Number (1 uM) / Normalized Cell Number (1 uM): compound at 1 uM; for Average Cell Number (1 uM) / Average Cell Number (5 uM): average of normalized cell number, n=3, relative to DMSO; for Cell Number (1 uM) / Normalized Cell Number (1 uM) / Cell Number (5 uM) / Normalized Cell Number (5 uM): single replicate; for Cell Number (1 uM) / Cell Number (5 uM): raw cell count; for Normalized Cell Number (1 uM) / Normalized Cell Number (5 uM): relative to negative control DMSO; for Average Cell Number (5 uM) / Cell Number (5 uM) / Normalized Cell Number (5 uM): compound at 5 uM
[3] = 1 uM, average log2FC infection (n=3) relative to DMSO
[4] = 5 uM, average log2FC infection (n=3) relative to DMSO

| Structure (SMILES) | HIT (2 Std, 1 uM) ([1]; 1 uM) | HIT ([1]; overall, 1 or 5 uM) | Average Infection (1 uM) [1, 3] | Average Infection (5 uM) [1, 4] | activity at 1 µM [1] [%] | activity at 5 µM [1] [%] | Toxic (1 uM) [2] | Toxic (5 uM) [2] | Average Cell Number (1 uM) [2] | Cell Number (1 uM) [2] | Normalized Cell Number (1 uM) [2] | Average Cell Number (5 uM) [2] | Cell Number (5 uM) [2] | Normalized Cell Number (5 uM) [2] | HIT (2 Stdv, 5 uM) ([1]; 5 uM) | further results |
| --- | --- | --- | --- | --- | --- | --- | --- | --- | --- | --- | --- | --- | --- | --- | --- | --- |
| O=C(c1ccc(F)cc1)N1CCC[C@H](c2nc(-c3ccc(F)cc3)no2)C1 [ADX-47273, adx-47273] | HIT | Yes | – | – | – | – | – | – | – | – | – | – | – | – | – | Average Infection (1 uM) [1]: −0.4315; Average Infection (5 uM) [1]: −0.3579; % Infection (1 uM) ([1]; 1 uM): 21.77% and 18.58% and 18.27%; Normalized Infection (1 uM) ([1]; 1 uM): 0.8288 and 0.7074 and 0.6954; log2FC Infection (1 uM) ([1]; 1 uM): −0.271 and −0.4995 and −0.524; % Infection (5 uM) ([1]; 5 uM): 14.06% and 10.49% and 11.77%; Normalized Infection (5 uM) ([1]; 5 uM): 0.9128 and 0.681 and 0.7644; log2FC Infection (5 uM) ([1]; 5 uM): −0.1316 and −0.5544 and −0.3876 |
| CC1(C)S[C@@H]2[C@H](NC(=O)[C@H](N)c3ccccc3)C(=O)N2[C@H]1C(=O)O [Ampicillin, ampicillin] | HIT | Yes | −0.9564 | −0.0334 | 48.2 | 102 | 0 (non-toxic (Normalized Cell number>0.65) | 0 (non-toxic (Normalized Cell number>0.65) | 0.694 | 3959 and 4296 and 3945 | 0.6756 and 0.7331 and 0.6732 | 0.9658 | 5481 and 5912 and 5777 | 0.9249 and 0.9976 and 0.9748 | – | – |
| Nc1cc(C(F)(F)F)c(-c2nc(N3CCOCC3)nc(N3CCOCC3)n2)cn1 [Bimiralisib, bimiralisib] | HIT | Yes | −1.45 | −4.123 | – | 5.11 | 0 (non-toxic (Normalized Cell number>0.65) | – | 0.6927 | 3839 and 4405 and 3934 | 0.6551 and 0.7517 and 0.6713 | 0.4637 | 2795 and 2791 and 2658 | 0.4716 and 0.471 and 0.4485 | HIT | – |
| c1cc(OCCN2CCCCC2)cc(-c2n[nH]c3ccc(-c4nc[nH]n4)cc23)c1 [CC-401, cc-401] | – | Yes | −0.3224 | −0.828 | 86.2 | 58.4 | 0 (non-toxic (Normalized Cell number>0.65) | 0 (non-toxic (Normalized Cell number>0.65) | 0.8485 | 4691 and 5161 and 5065 | 0.8005 and 0.8807 and 0.8643 | 0.8935 | 4993 and 5513 and 5380 | 0.8425 and 0.9303 and 0.9078 | HIT | – |
| CS(=O)(=O)N1CCc2c(-c3cnc(N)nc3)nc(N3CCOCC3)nc21 [CH5132799, ch5132799] | HIT | Yes | −1.059 | −3.565 | 42.1 | 8.27 | 0 (non-toxic (Normalized Cell number>0.65) | – | 0.6597 | 4526 and 3593 and 3479 | 0.7724 and 0.6131 and 0.5937 | 0.5239 | 3141 and 3289 and 2884 | 0.53 and 0.555 and 0.4867 | HIT | – |
| CC(C)(C[C@H]1CN(S(=O)(=O)c2cccc(C(F)(F)F)c2)c2cc(-c3cc(F)cc(OC(F)F)c3)ccc2O1)C(=O)O [Cintirorgon, cintirorgon] | HIT | Yes | −0.8423 | −0.109 | 53.8 | – | 0 (non-toxic (Normalized Cell number>0.65) | 0 (non-toxic (Normalized Cell number>0.65) | 0.7476 | 4247 and 4539 and 4357 | 0.7247 and 0.7746 and 0.7435 | 0.9874 | 5894 and 6058 and 5603 | 0.9946 and 1.022 and 0.9455 | – | – |
| C[N+]12CCC(CC1)C(OC(=O)C(O)(c1ccccc1)c1ccccc1)C2 (stereo not drawn) [Clidinium, clidinium] | HIT | Yes | – | – | – | – | 0 (non-toxic (Normalized Cell number>0.65) | 0 (non-toxic (Normalized Cell number>0.65) | 0.6841 | 3871 and 4256 and 3900 | 0.6606 and 0.7263 and 0.6655 | 0.9985 | 5211 and 6271 and 6270 | 0.8793 and 1.058 (2×) | – | Average Infection (1 uM) [1]: −0.7651; Average Infection (5 uM) [1]: −0.1069 |
| CC(C)C[C@@H](NC(=O)[C@H](Cc1ccccc1)NC(=O)CNC(=O)[C@@H](C)NC(=O)[C@@H](N)Cc1ccc(O)cc1)C(=O)O [DADLE, L-Tyrosyl-D-alanylglycyl-L-phenylalanyl-D-leucine] | HIT | Yes | – | – | – | – | 0 (non-toxic (Normalized Cell number>0.65) | 0 (non-toxic (Normalized Cell number>0.65) | 0.7534 | 4511 and 4466 and 4268 | 0.7698 and 0.7621 and 0.7283 | 0.9869 | 5991 and 5664 and 5891 | 1.011 and 0.9558 and 0.9941 | – | Average Infection (1 uM) [1]: −0.6223; Average Infection (5 uM) [1]: −0.2501; % Infection (1 uM) ([1]; 1 uM): 17.22% and 16.52% and 17.46%; Normalized Infection (1 uM) ([1]; 1 uM): 0.6557 and 0.6291 and 0.6645; log2FC Infection (1 uM) ([1]; 1 uM): −0.6088 and −0.6686 and −0.5896; % Infection (5 uM) ([1]; 5 uM): 13.22% and 10.81% and 15.19%; Normalized Infection (5 uM) ([1]; 5 uM): 0.8586 and 0.7017 and 0.9867; log2FC Infection (5 uM) ([1]; 5 uM): −0.22 and −0.511 and −0.01933 |
| O=C(O)CNC(=O)C1C(=O)N(C2CCCCC2)C(=O)N(C2CCCCC2)C1=O [Daprodustat, daprodustat] | HIT | Yes | – | – | 57.7 | – | 0 (non-toxic (Normalized Cell number>0.65) | 0 (non-toxic (Normalized Cell number>0.65) | 0.7431 | 4292 and 4412 and 4360 | 0.7324 and 0.7529 and 0.744 | 0.9695 | 5964 and 5671 and 5601 | 1.006 and 0.9569 and 0.9451 | – | Average Infection (1 uM) [1]: −0.8526; Average Infection (5 uM) [1]: −0.09093 |
| C#C[C@]1(O)CC[C@H]2[C@@H]3CCC4=CCCC[C@@H]4[C@H]3C(=C)C[C@@]21CC [Desogestrel, desogestrel] | HIT | Yes | −0.4489 | −0.1002 | 80.9 | 87 | 0 (non-toxic (Normalized Cell number>0.65) | 0 (non-toxic (Normalized Cell number>0.65) | 0.8768 | 5131 and 5212 and 5072 | 0.8756 and 0.8894 and 0.8655 | 0.9255 | 5708 and 5824 and 4922 | 0.9632 and 0.9828 and 0.8305 | – | – |
| C#C[C@]1(O)CC[C@H]2[C@@H]3CCC4=CC(=O)CC[C@@H]4[C@H]3C(=C)C[C@@]21CC [Etonogestrel, etonogestrel] | HIT | Yes | −0.4065 | −1.187 | 72 | – | 0 (non-toxic (Normalized Cell number>0.65) | – | 0.734 | 4255 and 4398 and 4251 | 0.7261 and 0.7505 and 0.7254 | 0.5829 | – | – | HIT | – |
| CS(=O)(=O)N1CCN(Cc2cc3nc(-c4cccc5[nH]ncc45)nc(N4CCOCC4)c3s2)CC1 [GDC-0941, pictilisib] | HIT | Yes | −2.374 | −2.82 | 14.6 | – | 0 (non-toxic (Normalized Cell number>0.65) | 0 (non-toxic (Normalized Cell number>0.65) | 0.7899 | 4447 and 4698 and 4741 | 0.7589 and 0.8017 and 0.809 | 0.8826 | 5415 and 4385 and 5891 | 0.9137 and 0.7399 and 0.9941 | HIT | – |
| CCOC(=O)N1CCC(=C2c3ccc(Cl)cc3CCc3cccnc32)CC1 [Loratadine, loratadine] | – | – | −0.3263 | −1.089 | 81.8 | 54 | – | – | – | – | – | – | – | – | – | HIT [1]: Yes; HIT (2 Stdv, 5 uM) [1]: HIT |
| Cc1ccccc1-n1c(Cn2nc(-c3cccc(O)c3)c3c(N)ncnc32)nc2cccc(C)c2c1=O [PIK-294, pik-294] | – | – | – | – | – | – | 0 (non-toxic (Normalized Cell number>0.65) | 0 (non-toxic (Normalized Cell number>0.65) | 0.7115 | 4346 and 3954 and 4208 | 0.7416 and 0.6747 and 0.7181 | 0.9038 | 5244 and 5589 and 5236 | 0.8849 and 0.9431 and 0.8835 | – | – |

Reference: patent publication US20240082228A1, “SARS-COV-2 THERAPEUTICS” (priority 2021, published 2024)
